Measurements: patent US12280047B2, “Treatment of aneurysms” (Georgia State Research Foundation, Inc., priority 2017, dated 2025)

Legend:
ApoE−/− mice [1] = assay: OMBA, NBA and 1MT treating AngII-induced abdominal aortic aneurysm (Example 15); format: in vivo; conditions: for Incidence of AAA: ApoE−/− mice, AngII 1,000 ng/kg/min four weeks, then drug in drinking water 6 weeks, mice with AAA/group size
Experimental: To test the effect of other Kynurenine pathway inhibitors on treating AngII-induced abdominal aortic aneurysm, male ApoE^−/− mice at age 8 weeks were infused with AngII (1,000 ng/kg/min) or saline (0.9% sodium chloride) by Alzet osmotic pumps for four weeks. Four weeks later, Ang-II treated mice were divided into […] groups of 18 and administered o-methoxybenzo ylalanine (OMB), (m-nitrobenzoyl)alanine (NBA), 1-methyltryptophan (1MT) or vehicle control (water) by drinking water for 6 weeks.
To quantify AAA incidence and size, the maximum width of abdominal aorta was measured with Image Pro Plus software (Media Cybernetics). Aneurysm incidence was quantified based on a definition of aneurysm as an external width of the suprarenal aorta that was increased by 50% or greater compared with aortas from saline-infused mice. The average diameter of the normal suprarenal aorta in control mice is 0.8 mm. Therefore, a threshold of 1.22 mm as evidence of aneurysm formation was set. […] Incidence of AAA among the various groups of mice is outlined in FIG. 31A and Table 5 below.

HASMCs = assay: MMP2 expression and activity in HASMCs incubated with metabolites of Trp degradation; format: cell-based, human
From the text: J Immunol. […] Neuropharmacology. […] Proc Natl Acad Sci USA.

MMP2 [2] = assay: MMP2 expression and activity in aortas of 3-HAA-injected mice; format: in vivo; conditions: 3-HAA 200 mg/kg/d i.p., 6 weeks; ApoE−/− and ApoE−/−/IDO−/− mice; vs vehicle-treated mice
Experimental: ApoE^−/− and ApoE^−/−/IDO^−/− mice at age 8 weeks on a chow diet were intraperitoneally injected with 3-HAA (200 mg/kg. d) or vehicle for 6 weeks. 3-HAA was dissolved in […] and further diluted in Captisol (Captisol Technology).
Circ Res. (2014) 114:480-92.
The evaluation of MMP activities in cells and aortas was performed as described previously in: Satoh K, et al., Cyclophilin A enhances vascular oxidative stress and the development of angiotensin II-induced aortic aneurysms. Nat Med. (2009) 15:649-56; Becerra A, et al., Increased activity of indoleamine 2,3-dioxygenase in serum from acutely infected dengue patients linked to gamma interferon antiviral function. J Gen Virol. (2009) 90:810-7; Holmes E W. Determination of serum kynurenine and hepatic tryptophan dioxygenase activity by high-performance liquid chromatography. Anal Biochem. (1988) 172:518-25; Forrest C M, et al., Kynurenine pathway metabolism in patients with osteoporosis after 2 years of drug treatment. Clin Exp Pharmacol Physiol. […]
To ascertain the effect of 3-HAA in MMP2 expression in vivo, ApoE^−/− and ApoE^−/−/IDO^−/− mice were intra-peritoneally treated with vehicle or 3-HAA (200 mg/kg/d) for 6 weeks. Corresponding increases in 3-HAA were detected in the plasma (FIG. 6F) and aortas (FIGS. 6D and 6E) of 3-HAA-injected ApoE^−/− and ApoE^−/−/IDO^−/− mice. […]

MMP2 [3] = assay: MMP2 in isolated mouse aortas incubated with 3-HAA ex vivo; conditions: 400 μM 3-HAA, 48 hours, aortas from ApoE−/− and ApoE−/−/IDO−/− mice
ApoE−/− mice [4] = assay: Serum kynurenine pathway metabolites in AngII mice treated with OMBA, NBA, 1MT (Example 15); format: in vivo
Experimental: The culture medium was centrifuged to pellet the cells to avoid contamination from the cells, and the supernatant was filtered ([…]) before use. Sample preparation for plasma was operated as described previously (Becerra A, et al., Increased activity of indoleamine 2,3-dioxygenase in serum from acutely infected dengue patients linked to gamma interferon antiviral function. J Gen Virol. (2009) 90:810-7; Holmes E W. Determination of serum kynurenine and hepatic tryptophan dioxygenase activity by high-performance liquid chromatography. Anal Biochem. (1988) 172:518-25). 200 μL of plasma was mixed by vortex in a small polyethylene conical tube with 1/10 volume of ice cold 2.4 mol/L perchloric acid. The cloudy suspension was chilled on ice for 15 min and then centrifuged at 10,000 g for 2 min. The clear protein-free supernatant was analyzed directly.
Circ Res. (2014) 114:480-92. Kyn content was estimated along with standards ranging from 0.5-20 μM L-kynurenine (Sigma, K8625), and Trp level was assessed along standards ranging from 1-25 μM DL-Tryptophan (Sigma, 162698), using a GraceVydac C18 column (250×4.6 mm, 5.0 The mobile phase was 20 mM sodium acetate at pH=4.5. The flow rate was 1 ml/min. The column effluent was monitored at 360 nm (Kyn) and 280 nm (Trp) by a UV detector.
3-HAA was measured by HPLC as described previously in Forrest C M, et al., Kynurenine pathway metabolism in patients with osteoporosis after 2 years of drug treatment. Clin Exp Pharmacol Physiol. (2006) 33:1078-87. 3-HAA content was estimated along with standards ranging from 1-200 nM 3-Hydroxyanthranilic acid (Santa Cruz, sc-216460), using a GraceVydac C18 column (250×4.6 mm, 5.0 The mobile phase consisted of 25 mM sodium acetate (pH=5.5) and methanol (90:10 v/v) was pumped at a flow rate of 1 ml/min. Fluorescent detection at excitation 320 nm and emission 420 was used. […]

[5] = concentration- and time-dependent manner

Compound	Incidence of AAA (ApoE−/− mice [1])	MMP2 expression and activity (HASMCs; 48 hours, Kyn 100 μM, 3-HK 100 μM, KA 75 μM, AA 100 μM, 3-HAA 200 μM, XA 200 μM, QA 1 mM, immunoblot and zymography)	expression and activity of MMP2 (HASMCs; [5])	phosphorylation of Elk1 at Ser383 (HASMCs; [5])	MMP2 expression and activity in aortas (MMP2 [2])	MMP2 expression and activity in isolated aortas (MMP2 [3])	aortic weight to body weight ratio (ApoE−/− mice [1]; AngII-administered mice)	maximal abdominal aortic diameter (ApoE−/− mice [1]; AngII-administered mice)	Serum levels of tryptophan (ApoE−/− mice [4]; AngII-administered mice, compared to control mice)	Levels of anthranilic acid (serum) (ApoE−/− mice [4]; compared to AngII alone)	Levels of kynurenic acid (serum) (ApoE−/− mice [4]; compared to AngII alone)
Cn1cc(C[C@H](N)C(=O)O)c2ccccc21 [1MT, 1-methyltryptophan]	9/18	–	–	–	–	–	–	–	–	–	–
Nc1c(O)cccc1C(=O)O [3-HAA, 3-Hydroxyanthranilic acid]	–	dramatic increase	induced	induced	remarkably increased	significantly upregulated	–	–	–	–	–
COc1ccccc1C(=O)NC(C)C(=O)O (stereo not drawn) [OMBA, o-Methoxybenzoylalanine]	5/18	–	–	–	–	–	lower	lower	decreased	elevated	elevated
